The NIST ThermoML archive (doi:10.1016/j.fluid.2014.07.038)
Numbers after ± are expanded uncertainties.

conditions: Liquid; pulse heating to limit of superheat

| SMILES | Critical pressure | Critical temperature |
| --- | --- | --- |
| Cc1ccc(CO)cc1 [1-(hydroxymethyl)-4-methylbenzene] | 3610 ± 200 kPa | 719 ± 14 K |
| CC(C)(CO)CO [2,2-dimethyl-1,3-propanediol] | 4200 ± 400 kPa | 687 ± 20 K |
| O=Cc1ccccc1C(=O)O [2-carboxybenzaldehyde] | 4800 ± 300 kPa | 864 ± 18 K |
| Cc1cccc(C(=O)O)c1 [3-methylbenzoic acid] | 3850 ± 240 kPa | 771 ± 16 K |
| O=Cc1ccccc1 [benzaldehyde] | 4410 ± 200 kPa | 692 ± 14 K |
| OCc1ccccc1 [benzenemethanol] | 4330 ± 200 kPa | 713 ± 14 K |
| OCCCO [propan-1,3-diol] | 6380 ± 520 kPa | 721 ± 22 K |

Next, values leading:

| Critical pressure | Critical temperature | SMILES |
| --- | --- | --- |
| 3920 ± 240 kPa | 763 ± 16 K | Cc1ccccc1C(=O)O [2-methylbenzoic acid] |
| 3800 ± 200 kPa | 712 ± 14 K | Cc1ccc(C=O)cc1 [4-methylbenzaldehyde] |
| 3800 ± 200 kPa | 775 ± 16 K | Cc1ccc(C(=O)O)cc1 [4-methylbenzoic acid] |
| 4530 ± 200 kPa | 755 ± 16 K | O=C(O)c1ccccc1 [benzoic acid] |
| 1210 ± 80 kPa | 777 ± 16 K | CCCCCCCC/C=C\CCCCCCCC(=O)OC [methyl cis-9-octadecenoate] |
| 1170 ± 80 kPa | 760 ± 16 K | CCCCCCCCCCCCCCCC(=O)OC [methyl hexadecanoate] |
| 1080 ± 60 kPa | 785 ± 16 K | CCCCCCCCCCCCCCCCCC(=O)OC [methyl octadecanoate] |
| 1320 ± 80 kPa | 730 ± 14 K | CCCCCCCCCCCCCC(=O)OC [methyl tetradecanoate] |
